# How the values were obtained:
# Settings in all cases: incubation time: 72 h
# [1] = system: MCF-10A; experiment: drug sensitivity score (DSS), CellTiter-Glo (DSS (AUC-based score)); higher = stronger drug effect (viability inhibition or cytotoxicity); extreme values may be limits of the assay
# In short: (§1)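 The area under the fitted dose-response curve was used to calculate the drug sensitivity score. Cells from breast cancer lines were incubated for 72 h in 384-well plates with compound at 5 concentrations spaced 10-fold over a 10,000-fold range specific to each compound. Plates were read for CellTox Green and then CellTiter-Glo, and normalised to 0.1 % DMSO and a positive kill control.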
# [2] = system: CAL-51; experiment: as above
# In short: as §1
# [3] = system: HCC1599; experiment: as above
# In short: as §1
# [4] = system: BT-549; experiment: as above
# In short: as §1
# [5] = system: BT-474; experiment: as above
# In short: as §1
# [6] = system: CAL-85-1; experiment: as above
# In short: as §1
# [7] = system: MFM-223; experiment: as above
# In short: as §1
# [8] = system: MDA-MB-231; experiment: drug sensitivity score (DSS), CellTiter-Blue viability (DSS (AUC-based score)); higher = stronger viability inhibition; extreme values may be limits of the assay
# Description: (§2)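 DSRT with the CellTiter-Blue (resazurin reduction) viability readout, fluorescence 560/590 nm, 72 h incubation. Plates were normalised to DMSO and benzethonium chloride controls. DSS is computed from the area under the fitted dose-response curve (5 or 9 concentrations).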
# [9] = system: CAL-120; experiment: as above
# Description: as §2
# [10] = system: MDA-MB-436; experiment: as above
# Description: as §2
# [11] = system: MDA-MB-468; experiment: as above
# Description: as §2
# [12] = system: HCC1143; experiment: as above
# Description: as §2
# [13] = system: Hs578T; experiment: as above
# Description: as §2
# [14] = system: HCC1937; experiment: as above
# Description: as §2
# [15] = system: SK-BR-3; experiment: as above
# Description: as §2
# [16] = system: CAL-51; experiment: as above
# Description: as §2
# [17] = system: HCC1599; experiment: as above
# Description: as §2
# [18] = system: BT-549; experiment: as above
# Description: as §2
# [19] = system: BT-474; experiment: as above
# Description: as §2
# [20] = system: DU-4475; experiment: as above
# Description: as §2
# [21] = system: MDA-MB-453; experiment: as above
# Description: as §2
# [22] = system: HDQ-P1; experiment: as above
# Description: as §2
# [23] = system: CAL-85-1; experiment: as above
# Description: as §2
# [24] = system: MFM-223; experiment: as above
# Description: as §2
# [25] = system: CAL-148; experiment: as above
# Description: as §2
SMILES,drug sensitivity score [1],drug sensitivity score [2],drug sensitivity score [3],drug sensitivity score [4],drug sensitivity score [5],drug sensitivity score [6],drug sensitivity score [7],drug sensitivity score [8],drug sensitivity score [9],drug sensitivity score [10],drug sensitivity score [11],drug sensitivity score [12],drug sensitivity score [13],drug sensitivity score [14],drug sensitivity score [15],drug sensitivity score [16],drug sensitivity score [17],drug sensitivity score [18],drug sensitivity score [19],drug sensitivity score [20],drug sensitivity score [21],drug sensitivity score [22],drug sensitivity score [23],drug sensitivity score [24],drug sensitivity score [25]
Cc1ccc([N+](=O)[O-])cc1S(=O)(=O)N(C)/N=C/c1cnc2ccc(Br)cn12 [PIK-75],28.4,30,23.1,29,28.5,29,26,–,–,–,–,–,–,–,–,–,–,–,–,–,–,–,–,–,–
Oc1ncnc2[nH]ncc12 [Allopurinol],0,0,0,0,0,0,0,0,0,0,0,0,0,0,0,0,0,0,0,0,0,0,0,0,0
O=NN(CCCl)C(=O)NCCCl [Carmustine],0,0,0,0,0,0,0,0,0,0,0,0,0,0,0,0,0,0,0,0,0,0,0,0,0
COc1cc2c(cc1O)CC[C@@H]1[C@@H]2CC[C@]2(C)[C@@H](O)CC[C@@H]12 [2-methoxyestradiol],0,5.34,2.6,10.1,5.9,5.61,4.75,11.2,8.63,7.65,2.79,4.05,9.08,9.5,2.73,5.78,0,10.5,6.94,6.57,9.7,5.38,5.36,0,0
CC1=C2C[C@H]3[C@@H](CC=C4C[C@@H](O)CC[C@@]43C)[C@@H]2CC[C@]12O[C@@H]1C[C@H](C)CN[C@H]1[C@H]2C [Cyclopamine],0,0,0,0,0,0,0,0,0,0,0,0,0,0,0,0,0,0,0,0,0,0,0,0,0
O=C1CN2Cc3c(ccc(Cl)c3Cl)N=C2N1 [Anagrelide],0,0.565,0,0,0.269,0,0,0,0,0,0,0,0,2.41,0,4.77,0,0,0,0,0,0,0,0,0
C[C@]1(O)C[C@@H](c2nc(-c3ccc4ccc(-c5ccccc5)nc4c3)c3c(N)nccn32)C1 [OSI-906],–,–,–,–,–,–,–,0,0,0,0,2.39,2,4.24,6.92,1.03,3.98,3.58,1.46,0,0,6.19,1.93,0,0
C[C@]12CC[C@@H]3c4ccc(OC(=O)N(CCCl)CCCl)cc4CC[C@H]3[C@@H]1CC[C@@H]2O [Estramustine],0,2.19,0,0,0,0,0,0,0,0,0,0,0,0,0,0,0,0,0,0,0,0,0,0,0

# — the supplement of paper PMC4862054
